# Reference: patent publication US20250213593A1, “Use of Derivatives based on Sarsasapogenin Structure and Pharmaceutical Compositions thereof” (BEIJING PHYTOVENT PHARMACEUTICAL TECHNOLOGY CO., LTD., priority 2022, published 2025)
# How the values were obtained:
# APOE−/− mutant B6J mice = test: Cardiovascular inflammation of APOE mutant mice fed with high-fat diets; type: in vivo, mouse; conditions: oral gavage once every 2 days, high-fat diets 16 weeks
# Source text: Experimental and analytical method: 6-week-old male APOE−/− mutant B6J mice and WT B6J mice were purchased and acclimatized in a feeding room for 2 weeks. When the mice were 8 weeks old, except for a Vehicle group and a WT group, the rest of the groups were given high-fat diets (Research Diets, D12492). When the mice were 9 weeks old, the Control group was given a 10% cyclodextrin solution, while the rest of the administration groups began to be grouped and administrated with different small molecule compounds (Embodiment 13B, Embodiment 33, Embodiment 36 and Embodiment 37) by oral gavage, at a frequency of once every 2 days. After being fed with high-fat diets for 16 weeks, the APOE mice were sacrificed and aortic arches were taken and dissected.
# ICR mice = test: Sleep of mice at subthreshold hypnotic dosage of sodium pentobarbital; type: in vivo, mouse; conditions: single oral gavage, high-, medium- and low-dosage; vs blank control
# Procedure: After adaptive feeding of mice, 50 qualified animals were selected according to their body weights and divided into 5 groups by Excel complete randomization: a blank control group, a positive control group (Diazepam), and high-, medium- and low-dosage groups of test product, with 10 animals in each group. Animals in each group should be administrated with drug solutions and vehicles. After 1 h of administration, the animals in each group were intraperitoneally injected with a maximum subthreshold dosage of sodium pentobarbital (firstly, a pre-experiment was conducted to determine a maximum subthreshold hypnotic dosage of sodium pentobarbital).
# [1] = test system: transgenic AD rat model (human APP mutant protein, SD rats); test: T-maze test of AD rats; type: in vivo; conditions: model vs administration group
# Procedure: The T-maze test had four stages: I. in an acclimatization stage, food was placed in both arms, and valves on both arms were opened. Each rat was trained twice. All rats entered the next stage after they had eaten the food on both sides within 5 min twice. II. In a forced training stage, a valve on one side was closed first, and the rats were allowed to eat the food on the opposite side. A valve on the opposite side was closed again, and the rats were allowed to eat the food on the other side. This was a training process. Each animal was trained 4 times a day for 3 days. III.
# In an optional training stage, the valve on one side was closed in half first, and the rats were allowed to eat the food on the opposite side. All the valves were then closed. If the rats went to the other side, they could finish eating the food there. If the rats went to the same side, there was no food here, and they were closed on this side for 30 s. This was a training process. Each animal was trained 4 times a day until the accuracy rate exceeded 75% for 2 consecutive days and proceeded to the next stage. IV.
# In a delayed optional test stage, it was basically the same as the operation of the III stage, except that interval time was added after the forced training stage and before the optional training stage. The interval time was set to 1.5 min, 3 min, and 10 min. Test was performed for 4 times at each time.
# [2] = test system: rats with ulcerative colitis induced by TNBS; test: TNBS rats enteritis model; type: in vivo, rat; conditions: 80 mpk oral gavage once a day, 7 days
# Procedure: All rats except the normal control group were fasted for solids (not liquids) for 24 h. After being anesthetized with isoflurane, the rats were transrectally infused with a TNBS ethanol solution (18 mg TNBS/mouse) at 0.5 mL/mouse through a latex hose, the length of the hose into the rectum was about 8 cm, an anesthesia state was continued after the hose was withdrawn, and the rats were kept in an inclined state for 15 min. The rats in the normal control group were not stimulated with rectal cannula. After the animals were awake, they were randomly divided into groups, which then began to be administrated with drugs (marked as D1). The blank group and the model group were administrated with the same amount of vehicle by oral gavage once a day for 7 consecutive days (D1-D7). The animal's status and feces (loose stools or bloody stools) were observed every day. The body weights were monitored. On the next day after the last administration (D8), the animals were deeply anesthetized with CO2, sacrificed and dissected. The entire colon tissues were harvested. The colon content was washed with normal saline after dissection along the mesenteric side. The body weights were measured and the colon lengths were measured. A ulcer surface was measured by Image J software. The general conditions of the colons were observed and photographed. Some of diseased tissues were fixed with formalin, and subjected to histopathological observation by HE staining. • Results: (1) the effects on general conditions of TNBS colitis mice were shown in FIG. 46a: the rats had loose stool on the next day of TNBS modeling; and the modeled mice had symptoms of reduced diet, tiredness, emaciation, erect hair, and dull hair. The feces of some rats were improved in the later stage of administration, but some rats still maintained loose stool until the end of the experiment, and some rats had obvious abdominal distension in the later stage of the experiment.
# hippocampal neurons = test: L-cysteine-induced neuronal excitotoxicity; type: cell-based, SD rats; conditions: compound 1 μM, 24 h before inducer
# In short: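 Primary E18-19 SD rat hippocampal neurons at DIV19 pretreated 24 h with compound (final 1 μM; AP5 100 μM positive control, DMSO negative), then exposed to L-cystine 400 μM plus NaHCO3 10 mM for 18 h. Hoechst staining; total and dead neurons counted in 6 random fields per well.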
# [3] = test system: TDP43^A315T transgenic mice; conditions: 40 mpk from Day 60
# Source text: Our experiments were divided into two groups, i.e., a model group and an administration group.
smiles,measurement,setting,value
C[C@H]1CC[C@@]2(OC1)O[C@H]1C[C@@H]3[C@H](CC[C@H]4[C@H]3CC[C@@H]3C[C@H](NC(=O)CC(=O)N5CCN(CCN(C)C)CC5)CC[C@@]34C)[C@H]1[C@@H]2C [Embodiment 13b],"inflammatory factors IL10, IL-1β and KC/GRO in aortic vascular epithelial tissue",APOE−/− mutant B6J mice,most significant
same,sleep latency,ICR mice,"could shorten the sleep latency of the mice, which had a certain dosage-response relationship, but no statistically significant difference"
same,sleep time,ICR mice,"could prolong the sleep time of the mice, but there was no statistically significant difference"
same,working memory in delayed optional T-maze test,"[1]; interval 1.5 min, administered from 7 to 15 months of age",no significant difference
same,working memory in delayed optional T-maze test,[1]; interval 3 min,no significant difference
same,working memory in delayed optional T-maze test,[1]; interval 10 min,working memory of the administration group also persisted
same,colon ulcer area,[2],more significant
same,colon weight per unit length (colon weight/colon length),[2],more significant
same,protective effects on L-Cystine (400 μM)-induced neuronal excitotoxicity,hippocampal neurons,protective effects
same,survival time (in words),[3],could effectively prolong the survival time
same,start of significant body weight decrease,[3]; model group Week 13,16 Week
same,death median,[3]; model group about Day 120,135 days
same,all died,[3]; model group about Day 140,150 days
same,first deaths,[3]; model group from Day 90,> 100 days
